In brackets after ≈: the same amount, converted by molar mass. Like-named read-outs stand apart in the source and are kept apart here.
Experiments:
[1] = tested on: A. baumannii clinical isolates; assay: Broth microdilution MIC, A. baumannii clinical isolates; type: cell-based, Acinetobacter baumannii; conditions: for CLSI % Res / CLSI % Sus: CLSI BP; for CLSI % Res: for MEM-ANT3310 % at ≥16 µg/mL; for CLSI % Sus: for MEM-ANT3310 % inhibited at ≤8 µg/mL; for EUCAST % Res / EUCAST % Sus: EUCAST BP; for MIC50 / MIC90: Acinetobacter baumannii; for MIC50: read-out: MIC50; for MIC90: read-out: MIC90
Protocol: (§1) All isolates were randomly selected from the frozen culture collection of IHMA collected in 2018 and 2019. Matrix-assisted laser desorption ionization-time of flight mass spectrometry was used to confirm the identity of the organisms tested (Bruker Daltonics, Bremen, Germany).
(§2) MICs for all antimicrobial agents were determined at IHMA by broth microdilution in accordance with both CLSI ([17]) and EUCAST ([18]) guidelines. Microtiter panels were prepared by IHMA and stored at −70°C in cation-adjusted Mueller Hinton broth (CAMHB) (Becton Dickinson). Iron-depleted CAMHB was used to test cefiderocol. Panels containing ANT3310 were prepared fresh on the day of testing. […] MIC values corresponded to the first well with no visible growth. Quality control testing was performed on each day of testing with E. coli ATCC 25922, P. aeruginosa ATCC 27853, K. pneumoniae ATCC 700603 and BAA 1705, and A. baumannii NCTC 13304. MICs were interpreted using 2023 CLSI ([17]) and EUCAST ([18]) BPs.

[2] = tested on: carbapenem-resistant Acinetobacter baumannii (CRAB) clinical isolates; assay: Broth microdilution MIC, CRAB isolates; type: cell-based; conditions: for CLSI % Res / CLSI % Sus: CLSI BP; for CLSI % Res: for MEM-ANT3310 % at ≥16 µg/mL; for CLSI % Sus: for MEM-ANT3310 % inhibited at ≤8 µg/mL; for EUCAST % Res / EUCAST % Sus: EUCAST BP; for MIC50 / MIC90: Acinetobacter baumannii; for MIC50: read-out: MIC50; for MIC90: read-out: MIC90
Protocol: as §1, §2

[3] = tested on: OXA-producing Enterobacterales (OXA-CRE); assay: organism not typed; type: cell-based
Protocol: as §1, §2

[4] = tested on: KPC-producing Enterobacterales (KPC-CRE); assay: organism not typed; type: cell-based
Protocol: as §1, §2

[5] = 2018 Global collection, All A. baumannii, N 500
[6] = A. baumannii, one or both of the 2018/2019 collections
[7] = 2018 Global collection, CRAB (MEM MICs >4 µg/mL), N 363
[8] = 2018 Global collection, CRAB, N 363
[9] = 252 OXA-producing Enterobacterales, EUCAST BP
[10] = 180 KPC-producing Enterobacterales, EUCAST BP
[11] = 2019 Global collection, All A. baumannii, N 405
[12] = 2019 Global collection, CRAB (MEM MICs >4 µg/mL), N 340
[13] = 2019 Global collection, CRAB, N 340

## NCC[C@H](O)C(=O)N[C@@H]1C[C@H](N)[C@@H](O[C@H]2O[C@H](CN)[C@@H](O)[C@H](O)[C@H]2O)[C@H](O)[C@H]1O[C@H]1O[C@H](CO)[C@@H](O)[C@H](N)[C@H]1O [Amikacin, amikacin]
[1]; [5]
  Number of isolates inhibited at MIC of 0.5 µg/mL: 2
  Number of isolates inhibited at MIC of 1 µg/mL: 42
  Number of isolates inhibited at MIC of 2 µg/mL: 96
  Number of isolates inhibited at MIC of 4 µg/mL: 33
  Number of isolates inhibited at MIC of 8 µg/mL: 12
  Number of isolates inhibited at MIC of 16 µg/mL: 11
  Number of isolates inhibited at MIC of 32 µg/mL: 13
  Number of isolates inhibited at MIC of >32 µg/mL: 291
  CLSI % Res: 58.2%
  CLSI % Sus: 39.2%
  EUCAST % Res: 63%
  EUCAST % Sus: 37%
  MIC50: > 32 µg/mL
  MIC90: > 32 µg/mL
[1]; [6]
  MIC90: ≥ 32 µg/mL
[2]; [7]
  Number of isolates inhibited at MIC of 0.5 µg/mL: 1
  Number of isolates inhibited at MIC of 1 µg/mL: 9
  Number of isolates inhibited at MIC of 2 µg/mL: 25
  Number of isolates inhibited at MIC of 4 µg/mL: 20
  Number of isolates inhibited at MIC of 8 µg/mL: 5
  Number of isolates inhibited at MIC of 16 µg/mL: 10
  Number of isolates inhibited at MIC of 32 µg/mL: 11
  Number of isolates inhibited at MIC of >32 µg/mL: 282
  MIC50: > 32 µg/mL
  MIC90: > 32 µg/mL
[2]; [8]
  CLSI % Res: 77.7%
  CLSI % Sus: 19.3%
  EUCAST % Res: 83.5%
  EUCAST % Sus: 16.5%
[3]
  MIC50: 16 µg/mL (≈ 27.3 µM)
  MIC90: > 64 µg/mL
[3]; 252 OXA-producing Enterobacterales, CLSI BP, for MEM-ANT3310 % at ≥16 µg/mL
  CLSI % Res: 32.1%
[3]; 252 OXA-producing Enterobacterales, CLSI BP, for MEM-ANT3310 % inhibited at ≤8 µg/mL
  CLSI % Sus: 59.5%
[3]; [9]
  EUCAST % Res: 52.0%
  EUCAST % Sus: 48.0%
[4]
  MIC50: 16 µg/mL (≈ 27.3 µM)
  MIC90: 64 µg/mL (≈ 109 µM)
[4]; 180 KPC-producing Enterobacterales, CLSI BP, for MEM-ANT3310 % at ≥16 µg/mL
  CLSI % Res: 11.7%
[4]; 180 KPC-producing Enterobacterales, CLSI BP, for MEM-ANT3310 % inhibited at ≤8 µg/mL
  CLSI % Sus: 57.8%
[4]; [10]
  EUCAST % Res: 54.4%
  EUCAST % Sus: 45.6%

## CN(C)[C@@H]1C(O)=C(C(N)=O)C(=O)[C@@]2(O)C(O)=C3C(=O)c4c(O)c(NC(=O)CN5CCCC5)cc(F)c4C[C@H]3C[C@@H]12 [Eravacycline, eravacycline]
[1]; [5]
  Number of isolates inhibited at MIC of 0.25 µg/mL: 66
  Number of isolates inhibited at MIC of 0.5 µg/mL: 83
  Number of isolates inhibited at MIC of 1 µg/mL: 194
  Number of isolates inhibited at MIC of 2 µg/mL: 55
  Number of isolates inhibited at MIC of 4 µg/mL: 3
  Number of isolates inhibited at MIC of ≤0.125 µg/mL: 99
  MIC50: 1 µg/mL (≈ 1.79 µM)
  MIC90: 2 µg/mL (≈ 3.58 µM)
[1]; [6]
  MIC90: 2 µg/mL (≈ 3.58 µM)
[2]; [7]
  Number of isolates inhibited at MIC of 0.25 µg/mL: 43
  Number of isolates inhibited at MIC of 0.5 µg/mL: 73
  Number of isolates inhibited at MIC of 1 µg/mL: 186
  Number of isolates inhibited at MIC of 2 µg/mL: 53
  Number of isolates inhibited at MIC of 4 µg/mL: 3
  Number of isolates inhibited at MIC of ≤0.125 µg/mL: 5
  MIC50: 1 µg/mL (≈ 1.79 µM)
  MIC90: 2 µg/mL (≈ 3.58 µM)
[3]
  MIC50: 1 µg/mL (≈ 1.79 µM)
  MIC90: 2 µg/mL (≈ 3.58 µM)
[4]
  MIC50: 0.5 µg/mL (≈ 0.895 µM)
  MIC90: 2 µg/mL (≈ 3.58 µM)

## C[C@H]1COc2c(N3CCN(C)CC3)c(F)cc3c(=O)c(C(=O)O)cn1c23 [Levofloxacin, levofloxacin]
[1]; [11]
  Number of isolates inhibited at MIC of 0.5 µg/mL: 1
  Number of isolates inhibited at MIC of 1 µg/mL: 1
  Number of isolates inhibited at MIC of 2 µg/mL: 10
  Number of isolates inhibited at MIC of 4 µg/mL: 33
  Number of isolates inhibited at MIC of 8 µg/mL: 96
  Number of isolates inhibited at MIC of 16 µg/mL: 99
  CLSI % Res: 73.8%
  CLSI % Sus: 18%
  EUCAST % Res: 84.4%
  EUCAST % Sus: 15.3%
  MIC50: 16 µg/mL (≈ 44.3 µM)
  MIC90: > 16 µg/mL
[1]; 2019 Global collection, All A. baumannii, N 405, footnote c
  Number of isolates inhibited at MIC of >16 µg/mL: 104^c
[1]; 2019 Global collection, All A. baumannii, N 405, footnote d
  Number of isolates inhibited at MIC of ≤0.25 µg/mL: 61^d
[1]; [6]
  MIC90: ≥ 32 µg/mL
[2]; [12]
  Number of isolates inhibited at MIC of 2 µg/mL: 9
  Number of isolates inhibited at MIC of 4 µg/mL: 29
  Number of isolates inhibited at MIC of 8 µg/mL: 92
  Number of isolates inhibited at MIC of 16 µg/mL: 97
  MIC50: 16 µg/mL (≈ 44.3 µM)
  MIC90: > 16 µg/mL
[2]; [13]
  CLSI % Res: 86.2%
  CLSI % Sus: 5.3%
  EUCAST % Res: 97.3%
  EUCAST % Sus: 2.7%
[2]; 2019 Global collection, CRAB, N 340, footnote c
  Number of isolates inhibited at MIC of >16 µg/mL: 104^c
[2]; 2019 Global collection, CRAB, N 340, footnote d
  Number of isolates inhibited at MIC of ≤0.25 µg/mL: 9^d

Reference: paper PMC10916402, “Meropenem-ANT3310, a unique β-lactam-β-lactamase inhibitor combination with expanded antibacterial spectrum against Gram-negative pathogens including carbapenem-resistant Acinetobacter baumannii” (Antimicrobial Agents and Chemotherapy, 2024)
